In patent US20250199015A1, “CYCLIN-DEPENDENT KINASE 2 INHIBITORS FOR MEDICAL TREATMENT” (INCYCLIX BIO, LLC, priority 2022, published 2025):
Where two headings read alike, the source gives them in different places.

Legend:
H526 cells = test: Cell cycle by EdU flow cytometry (nocodazole release, time course, cisplatin combination); type: cell-based, human; details: 300 nM
Protocol: The H526 human lung carcinoma cell line was grown in RPMI-1640/1× Glutamax/10% fetal bovine serum and was plated at 200,000 cells/well in Corning 6 well tissue culture treated plates. Cells were incubated at 37° C. for 24 hours prior to addition of 50 ng/mL nocodazole to arrest the cells in G2/M. One plate was untreated for comparison. After 16 hours, the asynchronous well and one synchronized well were collected. […] Cells were incubated with 10 μM EdU for 1 hour prior to collected and were then fixed in 1% paraformaldehyde. Cells were incubated with Pacific blue azide dye as described by Thermo Scientific. Cells were then incubated with FarRed dye and RNase. Cells were analyzed on a BD Celesta and data compiled using FloJo and GraphPad (FIG. 23). Cells survived slightly better with lower nocodazole dose (50 vs 100 ng/mL) but there was still cell death observed, particularly following S phase after release.
The H526 human lung carcinoma cell line was grown in RPMI-1640/1× Glutamax/10% fetal bovine serum and was plated at 200,000 cells/well in Corning 6 cm tissue culture treated plates. […] Cells were treated for the indicated amount of time, with 10 μM EdU added for the last hour of treatment. Cells were collected and fixed in 1% paraformaldehyde. Cells were incubated with Alexa 488 azide dye as described by Thermo Scientific. Cells were then incubated with FarRed dye and RNase. Cells were analyzed on a BD Celesta and data compiled using FloJo and GraphPad (FIG. 24).
The H526 human lung carcinoma cell line was grown in RPMI-1640/1× Glutamax/10% fetal bovine serum and was plated at 200,000 cells/well in Corning 6 cm tissue culture treated plates. Cells were incubated at 37° C. for 24 hours prior to addition of the first treatment. […] Cells were treated to 24 hours post-initial treatment, with 10 μM EdU added at hour 23 (FIG. 28A). Cells were collected and fixed in 1% paraformaldehyde. Cells were incubated with pacific blue azide dye as described by Thermo Scientific. Cells were then incubated with antibody against γ-H2AX at a ratio of 1:50 before incubation with FarRed dye and RNase. Cells were analyzed on a BD Celesta and data compiled using FloJo and GraphPad.

[1] = test system: phosphorylated Rb (pRb 807/811) in MCF7PDRC15-1 cells; test: Western blot pRb, palbociclib-resistant MCF7; type: cell-based, human
Protocol: Cells were harvested, counted and then plated at 300,000 cells/well in 60 mm tissue culture treated dishes. […] Lysates were clarified by centrifugation at 12,000×g for 15 min at 4° C. and supernatants were transferred to clean tubes. A BCA assay was performed to determine the protein concentration of each lysate. A total of 25 μg of protein was mixed with sample buffer and reducing agent before being run on a 4-12% SDS-PAGE. Protein was transferred to a nitrocellulose membrane and blocked with LI-COR blocking buffer for 1 hour. Membranes were incubated overnight in primary antibody at 4° C. Following 3 washes with TBST, membranes were incubated for 60 minutes in LI-COR secondary antibodies. Following 3 washes in TBST, and one TBS wash, membranes were scanned using a LI-COR OdysseyCLx. Image studio was used for image analysis.

SHP77 cells = test: CellTiter Glo cell proliferation assay (single agent and chemotherapy combination); type: cell-based, human
Protocol: (§1) Plates returned to incubator for six additional days. On day six post dosing, plates were removed and treated with CellTiter Glo reagent following manufacturer's specifications. Plates incubated 45 minutes at room temperature and run on a Biotek luminometer with 1 sec/well detection. Results were converted to Microsoft Excel and transferred to GraphPad Prism for analysis.
(§2) Dose curves ranged from 300 pM to 10 μM in triplicate and treatments lasted for 6 days. Plates were removed from incubator at each specified timepoint and treated with CellTiter-Glo (Promega, Inc) following manufacturer specifications. Plates were then read on CLARIOstar luminometer with 1 sec/well integration.
as §2, with “integration. Results were converted to Microsoft Excel and transferred to GraphPad Prism for Analysis.” for “integration.”

H69 (NCIH69) cells = test: as above; type: cell-based, human
Protocol: as §1, §2
as §2, with “integration. Results were converted to Microsoft Excel and transferred to GraphPad Prism for Analysis.” for “integration.”

human OAT3 = biological target: T1, human OAT3 (Homo sapiens, UniProt Q8TCC7); test: SLC transporter inhibition in HEK293 cells; type: in vitro ADME
T1 construct: expressed in transfected cells; host or cells: HEK293
T1 sequence (Q8TCC7 1-542): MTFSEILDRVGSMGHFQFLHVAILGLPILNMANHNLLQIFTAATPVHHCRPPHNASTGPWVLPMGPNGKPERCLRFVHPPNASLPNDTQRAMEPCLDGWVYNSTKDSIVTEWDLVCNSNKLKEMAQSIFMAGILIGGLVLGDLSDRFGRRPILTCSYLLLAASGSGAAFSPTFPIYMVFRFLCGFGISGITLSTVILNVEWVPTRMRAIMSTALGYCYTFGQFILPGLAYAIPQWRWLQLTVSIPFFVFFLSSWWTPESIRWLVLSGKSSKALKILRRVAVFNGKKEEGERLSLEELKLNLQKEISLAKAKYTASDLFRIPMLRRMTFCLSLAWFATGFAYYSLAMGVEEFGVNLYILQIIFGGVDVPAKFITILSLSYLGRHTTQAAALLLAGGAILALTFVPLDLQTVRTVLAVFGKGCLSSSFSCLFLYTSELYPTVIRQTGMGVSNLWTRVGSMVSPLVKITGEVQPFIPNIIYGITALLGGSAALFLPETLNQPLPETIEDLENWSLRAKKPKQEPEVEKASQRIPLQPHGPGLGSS

[2] = 100 nM Compound I with camptothecin dose curve, 6 days

## NS(=O)(=O)c1ccc(Nc2ncc3cc4n(c3n2)C2(CCCCC2)C(=O)NN4)cc1 [Compound I]
H526 cells
  S phase entry after nocodazole release: slower to enter S phase
H526 cells; 24 hours
  cells in G1 phase compared with PF-07104091: Substantially fewer H526 cells treated with Compound I were in G1 phase
  cells in G2/M phase compared to control: increase of cells in G2/M phase
H526 cells; 48 hours
  cells in S phase compared with PF-07104091: substantially fewer H526 cells treated with Compound I were in S phase
[1]; 30-1000 nM, 24 hours, no palbociclib
  phosphorylated Rb (pRb) levels: little reduction in phosphorylated Rb (pRb) levels
[1]; co-administered with 1 μM palbociclib
  phosphorylated Rb (pRb) levels: substantial reduction in pRb levels
SHP77 cells; [2]
  cellular proliferation IC50, combined with camptothecin, versus single agents: comparable
SHP77 cells; six days
  inhibition compared with palbociclib: low nanomolar concentrations
H69 (NCIH69) cells; [2]
  cellular proliferation IC50, combined with camptothecin, versus single agents: lower IC50 value
H69 (NCIH69) cells; six days
  inhibition compared with palbociclib: low nanomolar concentrations
Human OAT3; OAT3, HEK293 cells
  Maximum Percent inhibition: 86%
Human OAT3; OAT3, HEK293 cells, read-out: IC50
  IC50: 4.01 µM
Human OAT3; read-out: OAT3 IC50
  IC50: 4.01 µM
